We go through seven compounds from US5106407A, “Iodones and methods for antimicrobial use” (priority 1989, dated 1992).

Assay in all cases: minimum inhibitory concentration (MIC), agar dilution
Holding throughout (format): cell-based

Assay [1] has as its system Bacillus subtilis. The procedure: (§1) The minimum inhibitory concentration (MIC) for the compound of Example 19, i.e., (2-nitrophenyl)-iodonium 2,2-dimethyl-4,6-dioxo-1,3-dioxan-5-ylide was determined for 9 bacteria (using nutrient agar) and 5 yeast and fungi (using malt yeast agar). A one percent solution of this test compound (i.e., the compound of Example 19) was prepared in a mixture of acetone-water. Nutrient agar was prepared at pH 6.8 using deionized water according to standard Difco procedures. Malt yeast agar was prepared by adding 3 g Bacto yeast extract and 42 g Bacto Malt agar per liter of deionized water. The agar (nutrient agar when testing with bacteria and malt yeast agar when testing with yeast and fungi) was dispensed in 30 mL aliquots into 25×200 millimeter (mm) test tubes, capped and autoclaved for 15 min at 115° C. The test tubes containing the agar were cooled in a water bath until the temperature of the agar was 48° C. and then an appropriate amount of the one percent solution of the test compound was added (except in the controls where no test compound was added with the acetone-water) to the respective test tubes so that final concentrations of 500, 250, 100, 50, 25, 10, 5, 2.5, 1.0 and 0 parts per million (ppm) of the test compound in the agar were obtained. The agar solutions were each mixed and poured into individual petri plates so that each petri plate contained agar having a known concentration of test compound dispersed therein. After drying for 24 hr, the petri plates were inoculated with bacteria when the petri plates contained nutrient broth agar or with fungi and yeast when the petri plates contained malt yeast agar.
(§2) The inoculation with bacteria was accomplished using the following procedure. Twenty-four hr cultures of each of the bacteria were prepared by incubating the respective bacteria in tubes containing nutrient broth for 24 hr at 30° C. in a shaker. Dilutions of each of the 24 hr cultures were made so that 9 separate suspensions (one for each of the 9 test bacteria) were made, each containing about 10^8 colony forming units (CFU) per mL of suspension of a particular bacteria. Aliquots of 0.3 mL of each of the above suspensions were used to fill individual wells of a Steer's Replicator. For each microbial suspension, 0.3 mL was used to fill 3 wells (i.e., 3 wells of 0.3 mL each) so that for the 9 different bacteria 27 wells were filled. The Steer's Replicator was then used to inoculate the petri plates.
(§3) The petri plates were incubated at 30° C. for 48 hr and then read to determine if the test compound (i.e., the compound of Example 19) which was incorporated into the agar prevented growth of the respective bacteria. The minimum inhibitory concentration (MIC) for each bacteria was defined as the lowest concentration of the test compound which prevented growth of that bacteria.
(§4) In a similar procedure, the MIC (in ppm) of the compound of Example 11 (i.e., (2-nitrophenyl)-iodonium 2,6-dioxocyclohexylide) for various organisms was determined at an acid pH (about 6.8) and at an alkaline pH (about 8.2).
(§5) Using similar procedures, the MIC's (in ppm) of various compounds of Formula I and/or Formula II were determined for the organisms Enterobacter aerogenes and Bacillus subtilis in a neutral solution (pH about 6.8) and in an alkaline medium (pH about 8.2).

Assay [2] has as its system Enterobacter aerogenes. The procedure:
as §1, §2, §3, §4, §5

For assay [3], the system named is Klebsiella pneumoniae. The following applies: ATCC 8308. The procedure:
as §1, §2, §3, §4

Assay [4] deals with Staphylococcus aureus. The following applies: ATCC 8538. The procedure:
as §1, §2, §3, §4

Assay [5] concerns Pseudomonas aeruginosa. Particulars: ATCC 10145. The procedure:
as §1, §2, §3, §4

Assay [6] deals with Salmonella choleraesuis. The procedure: as §1, §2, §3, §4
Assay [7] concerns Proteus vulgaris. Particulars: ATCC 881. The procedure: as §1, §2, §3, §4
Assay [8] deals with Pseudomonas aeruginosa PRD-10. The following applies: ATCC 15442. The procedure:
as §1, §2, §3, §4

The test system of assay [9] is Escherichia coli. The following applies: ATCC 11229. The procedure: as §1, §2, §3, §4
Where [10] appears, read: Bacillus subtilis, alkaline growth medium (pH = 8.2), read-out: MIC (ABS).
Setting [11] is: Bacillus subtilis, neutral growth medium (pH = 6.8), read-out: MIC (NBS).
[12] abbreviates: Klebsiella aerogenes, alkaline growth medium (pH = 8.2), read-out: MIC (AEA).
Setting [13] is: Klebsiella aerogenes, neutral growth medium (pH = 6.8), read-out: MIC (NEA).
[14] abbreviates: alkaline growth medium (pH = 8.2).
Where [15] appears, read: neutral growth medium (pH = 6.8).

Values after ≈ are worked out from the molar mass of the structure shown. Read-outs that look alike come from different tables or passages of the source.

With `O=C1CCCC(=O)[C-]1[I+]c1ccccc1[N+](=O)[O-]` [Example 1, (2-nitrophenyl)-iodonium 2,6-dioxocyclohexylide], the MIC was no more than 1.0 ppm in assay [1] (ATCC 8473, Alkaline Medium (pH about 8.2)); no more than 1 µg/mL in [1] (Bacillus subtilis, ATCC8473, ATCC 8473, Neutral Medium (pH about 6.8), read-out: MIC); no more than 1.0 ppm in [2] (ATCC 13048, Alkaline Medium (pH about 8.2)); no more than 1 µg/mL in assay [2] (Klebsiella aerogenes, ATCC13048, ATCC 13048, Neutral Medium (pH about 6.8), read-out: MIC); no more than 1.0 ppm in assay [3] (Alkaline Medium (pH about 8.2)); no more than 1 µg/mL in assay [3] (Klebsiella pneumoniae, ATCC8308, Neutral Medium (pH about 6.8), read-out: MIC). Moreover, the MIC in assay [4] (Alkaline Medium (pH about 8.2)) is no more than 1.0 ppm; in assay [4] (Staphylococcus aureus, ATCC8538, Neutral Medium (pH about 6.8), read-out: MIC), no more than 1 µg/mL; in [5] (Alkaline Medium (pH about 8.2)), no more than 1.0 ppm; in assay [5] (Pseudomonas aeruginosa, ATCC10145, Neutral Medium (pH about 6.8), read-out: MIC), no more than 1 µg/mL; in assay [6] (ATCC 10708, Alkaline Medium (pH about 8.2)), no more than 1.0 ppm; in assay [6] (Salmonella enterica, ATCC 10708 / CHOLERAESUIS, Neutral Medium (pH about 6.8), read-out: MIC), no more than 1 µg/mL. In addition, the MIC in [7] (Alkaline Medium (pH about 8.2)) was no more than 1.0 ppm; in assay [7] (Proteus vulgaris, ATCC881, Neutral Medium (pH about 6.8), read-out: MIC) it was no more than 1 µg/mL; in [8] (Alkaline Medium (pH about 8.2)), no more than 1.0 ppm; in assay [8] (Pseudomonas aeruginosa, ATCC15442, Neutral Medium (pH about 6.8), read-out: MIC) it was no more than 1 µg/mL; in assay [9] (Alkaline Medium (pH about 8.2)), no more than 1.0 ppm; in [9] (Escherichia coli, ATCC11229, Neutral Medium (pH about 6.8), read-out: MIC) it was no more than 1 µg/mL.

Regarding `Cc1ccc([I+][C-]2C(=O)OC(C)(C)OC2=O)c([N+](=O)[O-])c1` [Example 16, (4-Methyl-2-nitrophenyl)-iodonium 2,2-dimethyl-4,6-dioxo-1,3-dioxan-5-ylide], the MIC turned out to be 5 µg/mL (≈ 12.3 µM) in assay [1] (setting [10]), 2.5 µg/mL (≈ 6.17 µM) in [1] (setting [11]), 10 µg/mL (≈ 24.7 µM) in assay [2] (setting [12]) and 2.5 µg/mL (≈ 6.17 µM) in assay [2] (setting [13]).

For the compound `CS(=O)(=O)c1ccccc1[I+][c-]1c(=O)cc[nH]c1=O` [Example 42, ((2-Methylsulfonyl)phenyl)-iodonium 1,2,3,4-tetrahydro-2,4-dioxopyridine3-ylide], the MIC is 500 µg/mL (≈ 1280 µM) in assay [1] (setting [10]), 500 µg/mL (≈ 1280 µM) in assay [1] (setting [11]), greater than 500 µg/mL in [2] (setting [12]) and 500 µg/mL (≈ 1280 µM) in [2] (setting [13]).

Regarding `O=c1[nH]c(=O)[c-]([I+]c2ccccc2[N+](=O)[O-])c(=O)[nH]1` [Example 44, (2-Nitrophenyl)-iodonium hexahydro-2,4,6-trioxo-5-pyrimidin-1-ylide], the MIC in [1] (setting [10]) was greater than 500 µg/mL; in assay [1] (setting [11]) it was 100 µg/mL (≈ 267 µM); in assay [2] (setting [12]), 500 µg/mL (≈ 1330 µM); in [2] (setting [13]), 100 µg/mL (≈ 267 µM).

As to `COc1ccc([I+][C-]2C(=O)OC(C)(C)OC2=O)c([N+](=O)[O-])c1` [Example 20, (4-Methoxy-2-nitrophenyl)-iodonium 2,2-dimethyl-4,6-dioxo-1,3-dioxan-5-ylide], the MIC is 25 µg/mL (≈ 59.4 µM) in assay [1] (setting [10]), no more than 10 µg/mL in [1] (setting [11]), 25 µg/mL (≈ 59.4 µM) in assay [2] (setting [12]) and no more than 10 µg/mL in assay [2] (setting [13]).

As for `Cc1ccc(I=C2C(=O)OC(C)(C)OC2=O)c([N+](=O)[O-])c1C` [Example 17, (3,4-Dimethyl-2-nitrophenyl)-iodonium 2,2-dimethyl-4,6-dioxo-1,3-dioxan-5-ylide], the “MIC (ABS)” value in assay [1] (setting [14]) was less than 10 ppm. Moreover, the “MIC (NBS)” value in assay [1] (setting [15]) was less than 10 ppm. For the same compound, the “MIC (AEA)” value in assay [2] (setting [14]) came out at 25 ppm. Besides, the “MIC (NEA)” value in assay [2] (setting [15]) was determined as 25 ppm.

For `CC1(C)CC(=O)[C-]([I+]c2ccccc2S(C)(=O)=O)C(=O)C1` [Example 12, ((2-Methylsulfonyl)phenyl)-iodonium 4,4-dimethyl-2,6-dioxocyclohexan-1-ylide], the MIC in [1] (setting [10]) is 100 µg/mL (≈ 238 µM); in assay [1] (setting [11]) it was 250 µg/mL (≈ 595 µM); in [2] (setting [12]) it was greater than 500 µg/mL; in [2] (setting [13]), greater than 500 µg/mL.
